These are literature values, as cited in patent US4431807A, “4-Methyl-5-(unsubstituted and substituted phenoxy)-6-methoxy-8-(aminoalkylamino)quinolines” (priority 1981, dated 1984).

The structures appear in SMILES notation.

For this series, the system named is Plasmodium vivax, P. malariae and P. ovale malaria. Conditions: cited from earlier work.

Take `COc1cc(NC(C)CCCN)c2ncccc2c1` (stereo not drawn) [Primaquine Diphosphate, 8-((4-amino-1-methylbutyl)amino)-6-methoxy-quinoline, reference compound]: under “clinical use”, the “Radical curative (tissue) activity” value was “effective in clearing the tissues of parasites” and the “Suppressive activity (blood schizonticide)” value is given as “relatively ineffective as a blood schizonticide”. Also, the Toxicity in man entry (single curative dose) is listed as “precludes administration of a single curative dose”.
